# Like-named read-outs stand apart in the source and are kept apart here.
# Key:
# rate leukocytes = tested on: rate leukocytes; set-up: method as in ref 19 (a number printed in a supplementary file, which may have a reference list of its own: not looked up in the article's list); settings: 10^-3 to 10^-6M; cited from earlier work
# SK-ES-1 = experiment: Hits validation, dose-response cell proliferation (CellTiter-Glo); format: cell-based; settings: 12-point dose-response 50 μmol/L to 1 nmol/L, mean ± SD
# Procedure: (§1) For hits validation and combination study, cells were harvested and aliquoted into 384-well plates at concentrations of 750–1,500 cells per well in a total of 20 μl/well using a Matrix Wellmate (Thermo Scientific). Five μl of culture media containing either vehicles or drug were added to each well the next day (drug concentrations range from 1 nmol/L to 50 μmol/L). For combination study, selected drugs were archived in robotically accessible plates, to which media was added in preparation for addition to master plates by a Nimbus 96 liquid-dispensing workstation (Hamilton). Liquid transfers to dilution and assay plates were handled using the same workstation. Each 384-well master plate contained four 9 by 9 dose-matrix blocks, with eight serial two-fold dilutions (concentrations range from 7.8 nmol/L to 1 μmol/L). Additional wells were reserved for untreated, and vehicle-treated control wells. Cell proliferation was evaluated using Cell-Titer Glo® reagents (Promega). IC50 values were determined for each drug using SigmaPlot (Systat Software). The combination index values were calculated using SigmaPlot (Systat Software) and CompuSyn.
# TC-71 = experiment: as above; format: cell-based; settings: 12-point dose-response 50 μmol/L to 1 nmol/L, mean ± SD
# Procedure: as §1
# RD-ES = experiment: as above; format: cell-based; settings: 12-point dose-response 50 μmol/L to 1 nmol/L, mean ± SD
# Procedure: as §1
# Hs 863.T. = experiment: as above; format: cell-based; settings: control cell line, 12-point dose-response, mean ± SD
# Procedure: as §1
# CHLA-258 = experiment: as above; format: cell-based; settings: 12-point dose-response 50 μmol/L to 1 nmol/L, mean ± SD
# Procedure: as §1
# A673 = experiment: as above; format: cell-based; settings: 12-point dose-response 50 μmol/L to 1 nmol/L, mean ± SD
# Procedure: as §1
# Hs 822.T. = experiment: as above; format: cell-based; settings: control cell line, 12-point dose-response, mean ± SD
# Procedure: as §1
# COG-E-352 = experiment: as above; format: cell-based; settings: 12-point dose-response 50 μmol/L to 1 nmol/L, mean ± SD
# Procedure: as §1
# [1] = set-up: method as in ref 19 (a number printed in a supplementary file, which may have a reference list of its own: not looked up in the article's list); settings: 2.5 µg/mL; cited from earlier work
# mouse lymphoma = tested on: mouse lymphoma; set-up: method as in ref 18, ref 19; settings: 313 to 700 ng/mL, in the presence of a rat liver microsomal preparation; cited from earlier work
# [2] = set-up: method as in ref 18, ref 19; settings: cited from earlier work
# [3] = Other animal xenograft models, oral auranofin; format: in vivo; settings: unpublished data
# Source text: As previously reported, Ridaura® was first developed for the management of rheumatoid arthritis as a disease-modifying anti-rheumatic drug (DMARD). However, the adverse effects and the concerns about the long-term consequences of the immunosuppression induced by Ridaura® led to the decline in its use. […] Therefore, we sought to determine if altering the route of delivery could replicate the dramatic in vitro anticancer activity and improve its efficacy in vivo. Previous studies have shown that orally delivered auranofin is rapidly metabolized and intact auranofin has never been detected in the blood. Thus, studies of the pharmacokinetics of auranofin have involved measurement of gold concentrations. Upon oral administration, 25% of auranofin gets absorbed.
# A673 cells = experiment: In vivo xenograft mouse model
# Procedure: To assess the antitumor activity of auranofin (using an alternative delivery approach), ganetespib and the combination treatments in vivo, we generated a xenograft nude mouse model by injecting A673 cells intramuscularly proximal to the tibia. Based on the dose tolerance and pharmacokinetic studies described above, we administered auranofin at a tolerable daily i.p. dose that achieved adequate systemic drug exposure. Auranofin was administered with a dose of 12 mg/kg through an i.p. injection once a day for 5 days per week, and ganetespib was administered with a dose of 150 mg/kg through an i.v. injection once weekly. Mice that grew palpable tumors were randomized into four groups: vehicle, auranofin-only, ganetespib-only, and the combination.
# The guidelines adopted by the Institutional Animal Care and Use Committee of the University of Kansas Medical Center (KUMC-IACUC) were followed in all performed procedures. All experimental protocols were approved by KUMC-IACUC. Homozygous athymic nude (Foxn1nu/Foxn1nu) female mice at the age of 4-weeks were purchased from Jackson Laboratories. After one week, one million A673 cells in PBS (pH = 7.3) were injected into mice. The cells were injected intramuscularly proximal to the tibia and treatment started after 15 days of inoculation. Mice developing palpable tumors were divided into 4 arms and treated for up to 18 days: vehicle (20% Cremophor RH40 and 80% D5W iv and 0.5% HPMC K4M ip), auranofin (12 mg/kg i.p. injection 5 days per week), ganetespib (150 mg/kg i.v. injection once weekly), as well as auranofin and ganetespib combined. Mice were evaluated for overall health and weighed every week. When tumor size impeded mobility, mice were sacrificed and necropsies were performed. Tumors were then dissected, measured and processed for analysis. The liver, kidneys, and spleen were also snap frozen in liquid nitrogen or fixed in 10% neutral buffered formalin and paraffin embedded for toxicity studies. Tissues were then subjected to hematoxylin and eosin (H&E) staining and immunohistochemical staining. […]
# [4] = set-up: method as in ref 19 (a number printed in a supplementary file, which may have a reference list of its own: not looked up in the article's list); settings: dogs, 0.6 - 1.2 mg auranofin/kg p.o.; cited from earlier work
# [5] = cited from earlier work; for LD50: PO
# [6] = set-up: method as in ref 19 (a number printed in a supplementary file, which may have a reference list of its own: not looked up in the article's list); settings: dogs, cited from earlier work
smiles,measurement,setting,value
"CC(=O)OC[C@H]1O[C@@H]([S-])[C@H](OC(C)=O)[C@@H](OC(C)=O)[C@@H]1OC(C)=O.CCP(CC)CC.[Au+] [Auranofin, auranofin]",particle-stimulated lysosomal enzyme release,rate leukocytes,significantly reduced
same,IC50,SK-ES-1,0.08 µM
same,IC50,TC-71,0.26 ± 0.14 µM
same,IC50,RD-ES,2.45 ± 0.52 µM
same,IC50,Hs 863.T.,3.25 ± 0.12 µM
same,IC50,CHLA-258,0.38 ± 0.19 µM
same,IC50,A673,0.33 ± 0.22 µM
same,IC50,Hs 822.T.,1.45 ± 0.09 µM
same,IC50,COG-E-352,0.82 ± 0.19 µM
same,pokeweed mitogen-induced immunoglobulin production,[1],inhibited
same,mutation frequencies,mouse lymphoma,induced increases in the mutation frequencies
same,mutation effects,[2],no m utation effects
same,efficacy when given orally,[3],not effective
same,survival rate versus control group,"A673 cells; auranofin 12 mg/kg i.p. 5 days per week, ganetespib 150 mg/kg i.v. once weekly, p < 0.05",significantly increased the survival rate
same,toxicity or adverse effects in xenograft study,"A673 cells; auranofin 12 mg/kg i.p., ganetespib 150 mg/kg i.v.",did not show any noticeable toxicity or adverse effects
same,antidiuretic effect,[4],not in dogs
same,LD50,"[5]; Mouse B6C3F1, F",187 mg/kg
same,LD50,"[5]; Mouse B6C3F1, M",190 mg/kg
same,LD50,"[5]; Mouse CF1, F",225 mg/kg
same,acute oral LD50,[5]; adult mice,310 mg/kg
same,"chronic toxicity, anemia in middle and high dose groups","[6]; oral 0.6, 1.2 and 2.4-6.0 mg/kg/day, 12 months",intravascular hemolytic anemia
same,subacute toxicity findings,"[6]; oral 1.8, 3.6-7.2 and 6.9-18.0 mg/kg/day, 3 months","Dose-related emesis, diarrhea, decreased food consumption"

# Source: PMC5354814, “In silico and in vitro drug screening identifies new therapeutic approaches for Ewing sarcoma” (Oncotarget, 2016)
